Experiments:
[1] = system: maize A188 immature embryos; test: Embryogenic structure induction after transient co-bombardment of boost gene constructs; format: cell-based; conditions: 1 month after bombardment, co-bombarded with Tdt (FIG. 12)
Procedure: At 9-12 days post pollination, maize ears (i.e. A188 or Hi II) with immature embryos having a size of 0.8 to 1.8 mm, preferably 1.0-1.5 mm, were harvested. The ears were sterilized with 70% ethanol for 10-15 minutes. After brief air drying in a laminar hood, the top ˜⅓ of the kernels were removed from the ears with a shark scalpel, and the immature embryos were pulled out of the kernels carefully with a spatula. The fresh isolated embryos were placed onto the bombardment target area in an osmotic medium plate (see below) with scutellum-side up. The plates were wrapped with parafilm and incubated at 25° C. in the dark for 4 hours before bombardment. […]
After bombardment, the embryos remained on the osmotic medium for another 16 hours. Transient transformation was examined using a fluorescence microscope for the tDT expression at excitation maximum 554 nm and emission maximum 581 nm 16-20 hours after bombardment. The embryos with dense fluorescent signals under a fluorescence microscope (FIG. 9) were selected and transferred from N6OSM onto a N6-5Ag plate (˜15 embryos per plate) with scutellum-face-up for callus induction (see below). […]
The embryos with dense fluorescent signals under a fluorescence microscope (FIG. 9) were selected and transferred from N6OSM onto N6-5Ag for embryonic callus induction. […] Embryogenic callus induction was monitored by observation under a dissection microscope. […]

[2] = system: maize genotype A188; test: Regeneration of transgenic plants after stable integration of boost gene constructs including Pat-Tdt; format: cell-based; conditions: construct including Pat-Tdt
Source text: This strong boost effect on the level of the embryo was also effective to the efficiency of regeneration of whole transgenic plant.

[3] = system: maize Hi II immature embryos; test: Stable transformation frequency of co-delivered tDT report gene without selection; format: cell-based; conditions: transient expression, 10 days after co-bombardment
Procedure: Maize embryo preparation, transient bombardment, and embryonic callus induction are described in Examples 1 and 2. The embryos were cultured in N6-5Ag medium at 27° C. in the dark for 14 days. tDT fluorescence was used to monitor embryogenic callus induction and stable transformation by observation under a fluorescent microscope. Specifically, the boost effect was measured by its capability to increase transformation frequency (TF) of the tDT report gene […] after bombardment without a selection.
The strong and uniformed tDT fluorescent signals from the emerging embryonic structures in FIG. 14 indicated integration and stable transformation of tDT gene. Stable transformation frequency is defined as the number of embryos with at least one stable tDT fluorescent structures induced from 100 embryos initially used. Stable transformation frequency was measured 10 days after bombardment.

[4] = system: maize Hi II genotype; test: Stable transformation of boost gene in Hi II genotype and appearance of the transgenic plants; format: in vivo
Source text: Stable transformation of ZmPLT7 gene in Hi II genotype was successful.

[5] = system: maize A188 plants; test: Phenotype of adult plants regenerated from stable transformation of A188; format: in vivo; conditions: stable transgenic integration, A188, compared to normal A188 plants (FIG. 13)
[6] = system: maize WUS2 promoter; test: Maize WUS2 promoter tDT report construct co-bombarded with boost factor; format: cell-based; conditions: for activation of maize WUS2 promoter / gene: transient co-bombardment in immature embryos and leaves
Source text: Homeobox domain transcriptional factor WUSCHEL (WUS) plays an important role in establishing and maintaining of shoot meristem. To identify boost factors that promote endogenous WUS2 expression, the maize WUSCHEL 2 promoter report construct (pAMK-ZmWUS2-tDT-noT) (SEQ ID NO: 29; FIG. 16) was used to illustrate maize WUS2 promoter activity. The maize WUS2 promoter (pZmWUS2) drove expression of the tDT report gene in this report construct (FIG. 16). The WUS2 promoter report construct was co-bombarded with boost factors individually in maize immature embryos and leaf segments.
Fresh leaf segments of 1-2 cm in length were prepared from the in vitro-cultured maize A188 seedling of 10-14 days old, and placed on the Osmotic medium with abaxial side up for 4 hours. For co-bombardment, two plasmids (100 ng of ZmWUS2 promoter report (FIG. 16) and 100 ng of boost construct, e.g. TaRKD4 (FIG. 5)) were premixed and coated onto 100 μg of gold particles size 0.4 μm. Immature embryo preparation, bombardment, and post-bombardment culturing were carried out as described in Example 1 and Example 2. Red fluorescence showing tDT expression was monitored using a fluorescent microscope started at 16 hours after bombardment.

[7] = A188 leaf segments, after bombardment, co-bombarded with pZmWUS2 report

Substance	quantification of embryonic structures with Tdt formation per embryo [1]	efficiency of regeneration of transgenic plants [2]	effect on stable transformation of co-delivered tDT report gene [3]	stable transformation of the boost gene [4]	appearance of transgenic plants ([4]; single construct, compared to normal A188 plants (FIG. 15))	phenotype of produced transgenic plants [5]	time at which tDT signal peaked [6, 7]	time at which tDT signal was detected [6, 7]	tDT red fluorescent signal ([6]; immature embryos, 44 hours after bombardment, compared to WUS promoter reporter only (weak signals))	activation of maize WUS2 promoter / gene [6]	activation of maize WUS2 promoter / gene ([6]; listed as TaRKD4)
ZmPLT7: maize PLT7 gene expression construct driven by strong constitutive Brachypodium EF1 promoter (SEQ ID NO: 27; cDNA SEQ ID NO: 3)	slightly increased amount/development of embryonic structures per embryo	no transgenic plants have been produced successfully	promotes stable transformation frequency	successful	comparable appearance than the normal A188 maize plants						
ZmWUS2: maize WUS2 gene expression construct driven by strong constitutive Brachypodium EF1 promoter (SEQ ID NO: 28; cDNA SEQ ID NO: 1)	slightly increased amount/development of embryonic structures per embryo	transgenic plants at a low level of efficiency				without any detrimental phenotype					
wheat RKD4: wheat RKD4 gene, maize-codon optimized, expression construct driven by Brachypodium EF1 promoter (SEQ ID NO: 34)							around 44 hours	around 36 hours	extremely strong red fluorescent signals	strongly activate maize WUS2 genes	activates maize WUS2 promoter
